Assay in all cases: inhibition of tumour cell growth, NCI panel, 48 h
For experiment [1], the system named is KM12 colon.
Experiment [2] concerns TK-10 renal.
The test system of experiment [3] is T-47D breast.
For experiment [4], the system named is MOLT-4 leukemia.
Experiment [5] deals with RXF 393 renal.
Experiment [6] deals with ACHN renal.
Experiment [7] relates to HCT-116 colon.
For experiment [8], the system named is NCI-H23 lung.
In experiment [9] the test system is HCT-15 colon.
Experiment [10] has as its system SF-268 CNS.
Experiment [11] has as its system UACC-257 melanoma.
In experiment [12] the test system is U251 CNS.
Experiment [13] has as its system MDA-MB-231 breast.

Several values for one entry are separate records, joined by “and”; a condition that tells them apart may be missing. Equal values may be shown once.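 Growth conditions: 96-well plates. Treatment: test compound, 48 hours, 5 concentrations. Analysis: linear interpolation between bracketing concentrations; unreached endpoints set to highest concentration. The concentration for 50% growth inhibition is given as GI50. The concentration for full growth arrest is given as TGI.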

As for `Fc1cc2nc3n(c2cc1F)C(c1c(Cl)cccc1Cl)SC3` (stereo unspecified), the TGI in [1] is 26.2 µM; in [2], 32.2 µM; in [3] it was 31.7 µM; in experiment [4], more than 100 µM; in experiment [5], 28.5 µM; in experiment [6] it was 31.7 µM. For the same molecule, the TGI in experiment [7] amounted to 25.2 µM; in experiment [8], 35.7 µM; in experiment [9] it was 36.7 µM; in [10] it was 34.4 µM; in experiment [11], 27 µM; in [12] it was 31.4 µM. The molecule further returned a TGI in experiment [13] of 34.6 µM.
For the molecule `Brc1ccc(C2CC3(c4ccccc4)ON=C(c4ccccc4)N3c3ccccc3S2)cc1` (stereo unspecified), the TGI in experiment [1], in experiment [2], in experiment [3], in experiment [4], in experiment [5] and in experiment [6] was more than 100 µM each time. The TGI in experiment [7], in [8], in experiment [9], in [10], in [11] and in [12] was more than 100 µM throughout. In experiment [13], this molecule registered a TGI of more than 100 µM.
For the molecule `O=C(N[C@@H](Cc1ccccc1)B(O)O)[C@H](Cc1cccc2ccccc12)NC(=O)N1CCOCC1`, the TGI in experiment [1] is 0.0041 µM and 0.0149 µM; in experiment [2], 0.154 µM and 0.413 µM; in [3] it was 0.00368 µM; in experiment [4], 0.00366 µM and 0.0107 µM; in experiment [5], 0.00379 µM; in experiment [6], 24.6 µM. Moreover, the TGI in experiment [7] was 0.00208 µM; in experiment [8] it was 0.00899 µM and 0.0101 µM; in [9], 0.61 µM and 0.405 µM; in [10], 0.00654 µM and 0.058 µM; in experiment [11] it was 0.0065 µM and 0.0397 µM; in experiment [12], 0.132 µM and 0.174 µM. The TGI in experiment [13] is 0.00745 µM and 0.0232 µM.
Consider `COC(=O)C1SC[C@H]2C(=O)N(c3ccccc3)C(=O)N12` (stereo partly specified), for which the TGI in experiment [1], in experiment [2], in experiment [3], in experiment [4], in [5] and in experiment [6] was more than 100 µM in each case. Moreover, the TGI in [7], in experiment [8], in experiment [9], in [10], in experiment [11] and in experiment [12] was more than 100 µM in each case. Moreover, in experiment [13], the TGI was more than 100 µM.
In the case of `Cc1c(C#N)c(N)n(C2OC(CO)C(O)C(O)C2O)c(=S)c1C#N` (stereo unspecified), the TGI in experiment [1], in experiment [2], in experiment [3], in experiment [4], in experiment [5] and in experiment [6] was more than 100 µM each time. The TGI in experiment [7], in [8], in [9], in [10], in experiment [11] and in experiment [12] was more than 100 µM throughout. Besides, in experiment [13], the TGI is more than 100 µM. Further, the GI50 in [3] was more than 100 µM.
As for `CCOc1cc(/C=C2\N=C(c3ccccc3)N(c3nc4ccccc4s3)C2=O)ccc1O`, the TGI is more than 100 µM in experiment [1]; more than 100 µM in [2]; more than 100 µM in experiment [3]; 58.9 µM in [4]; more than 100 µM in experiment [5]; more than 100 µM in [6]. Further, the TGI in experiment [7] was more than 100 µM; in experiment [8] it was 77.8 µM; in [9], 82.5 µM; in experiment [10], more than 100 µM; in [11], more than 100 µM; in experiment [12], more than 100 µM. Also, in experiment [13], the TGI was more than 100 µM.
Regarding `Cc1ccc(NC(=S)N=Nc2c(O)[nH]c3ccccc23)cc1`, the TGI in experiment [1], in experiment [2], in [3], in experiment [4], in experiment [5] and in [6] was more than 100 µM each time. In addition, the TGI in experiment [7], in experiment [8], in experiment [9], in experiment [10], in [11] and in experiment [12] was more than 100 µM each time. For the same molecule, in experiment [13], the TGI was more than 100 µM.
As for `O=P(O)(O)CC1OC(CO)C(O)C1O` (stereo unspecified), the TGI in experiment [1], in [2], in experiment [3], in experiment [4], in [5] and in experiment [6] was more than 100 µM each time. Further, the TGI in experiment [7], in experiment [8], in experiment [9], in experiment [10], in experiment [11] and in [12] was more than 100 µM in each case. The molecule also had a TGI in experiment [13] of more than 100 µM.
On to `NS(=O)(=O)c1ccc(N2C(=O)C(=O)N(c3ccccc3)C2=S)cc1`, for which the TGI in experiment [1], in experiment [2], in [3], in experiment [4], in [5] and in experiment [6] was more than 100 µM throughout. For the same molecule, the TGI in experiment [7], in [8], in experiment [9], in [10], in experiment [11] and in experiment [12] was more than 100 µM each time. Further, the TGI in [13] is more than 100 µM.
With `CNC(=O)OCC1=C(COC(=O)NC)C(C)N(c2ccccc2)C1` (stereo unspecified), the TGI is more than 100 µM in experiment [1]; more than 100 µM in [2]; more than 100 µM in experiment [3]; 71.1 µM in experiment [4]; more than 100 µM in experiment [5]; more than 100 µM in [6]. The TGI in experiment [7], in experiment [8], in experiment [9], in experiment [10], in experiment [11] and in experiment [12] was more than 100 µM in each case. Moreover, the TGI in experiment [13] was more than 100 µM.
